Source: publication PMC6154706, “Inhibitory Effect of Triterpenoids from Panax ginseng on Coagulation Factor X” (Molecules : A Journal of Synthetic Chemistry and Natural …, 2017)
Like-named read-outs stand apart in the source and are kept apart here.

Tests used:
[1] = test system: Platelet poor plasma; assay: Blood clotting time in vitro (APTT, PT, TT); type: biochemical, rats; conditions: PT and TT tests, final concentration 0.05 mg/mL
Protocol: Rats were anaesthetized with 10% chloral hydrate (3 mL/kg). The blood obtained from the abdominal aorta was collected directly into citrated tubes containing 3.8% sodium citrate (1:9 (v/v)) and was used immediately after collection. Platelet poor plasma […] was prepared by centrifuging the blood at 3000 rpm for 20 min at 20 °C [24]. Plasma samples with jaundice, chylus, hemolysis and blood clot were excluded prior to the assays. Plasma mixtures were 90 μL of PRP with 10 μL of tested compounds (0.5 mg/mL, dissolved in DMSO). For PRP in the solvent group, the sample was 90 μL of PRP with 10 μL of DMSO. For PRP in the normal control group, the plasma was not-treated PRP sample. For PRP in the heparin group, the sample was 90 μL of PRP with 10 μL of heparin (0.1 mg/mL), which was used as the positive control drug.
Blood coagulation assays were carried out using a coagulation analyzer at the Blood Center clinical laboratory in the Second Hospital affiliated to Jilin University (Changchun, China). Measurements of APTT, PT and TT were performed according to the manufacturer’s recommended protocols. The anti-coagulant activity was expressed as clotting time ± standard deviation (S.D.). Briefly, for APTT assay, 50 μL of the plasma mixture was incubated at 37 °C for 60 s and the mixture was added to the APTT reagent (50 μL) and incubated at 37 °C for 15 min. Finally, APTT values were recorded. For the PT assay, 50 μL of the plasma mixture was incubated at 37 °C for 60 s and then added into the PT reagent (100 μL) prior to incubation at 37 °C for 15 min before the PT values were recorded. For the TT assay, 80 μL of the plasma mixture was incubated at 37 °C for 60 s before the addition of 80 μL of TT reagent for 100 s. TT values were determined by the coagulation analyzer.

[2] = biological target: T1, coagulation factor Xa (FXa) (Bos taurus, UniProt P00743); assay: FXa activity assay in vitro (chromogenic substrate method); type: biochemical
T1 construct: purchased New England Biolabs (Hitchin, UK)
Protocol: 10 µL of FXa (final concentration of 0.5 nM), 40 µL of Tris buffer (adjusted to pH 7.4 with HCl containing 0.3 M NaCl and 50 mM Tris) and 10 µL of test compounds were added to the well, respectively. The negative control was performed using the same mixed solutions except that the test compound was replaced with DMSO. […] After 15 min of incubation at 37 °C, FXa substrate (40 μL, final concentration of […]) was added and then was incubated 37 °C for 25 min [3]. The optical density (OD) values at 405 nm were evaluated by an automated microplate reader. […] Inhibition rate was calculated by the following formula: Anti-FXa activity = (V0 − Vi)/V0 [21]. The IC50 value was subsequently calculated by SPSS 19.0.

[3] = biological target: T2, human FIIa (thrombin) (Homo sapiens, UniProt P00734); assay: Thrombin inhibition in vitro (chromogenic substrate CS-01(38)); type: biochemical; conditions: pH 7.4, 37 °C, 405 nm
T2 construct: purchased Hyphen BioMed (Paris, France)
Protocol: The inhibition of thrombin was evaluated by human FIIa and chromogenic substrate CS-01(38) in 96-well microtiter plates at room temperature. Compounds 5, 13 and 18 as well as the positive reagent Ximelagatran were dissolved in DMSO to a concentration of 1mM and then serially diluted to a range of 10 μM to 100 μM, respectively. 8 μL of FIIa (3 NIH U/mL), 80 μL of Tris buffer (adjusted to pH 7.4 with HCl) containing 0.3 M NaCl and 50 mM Tris and 8 μL of test compounds were added to the well, respectively. The negative control was performed using the same mixed solutions except that tested compounds were replaced with DMSO. The positive control was performed using the same mixed solutions except that the test compounds were replaced with ximelagatran. After incubation at 37 °C for 15 min, 12 μL of FIIa substrate solution (4 mM) was added and then incubated at 37 °C for 25 min [3]. The anti-FIIa activity was measured at 405 nm using a microplate reader.

[4] = test system: blood coagulation; conditions: 0.05 mg/mL final concentration vs 0.1 mg/mL heparin; cited from earlier work
[5] = test system: FXa; design: method as in PMID 24412029, PMID 22216842; conditions: cited from earlier work
[6] = test system: thrombus; design: method as in PMID 24412029, PMID 22216842; conditions: rat models, orally administered; cited from earlier work
[7] = FXa 0.5 nM, pH 7.4, 37 °C, OD 405 nm, read-out: IC50 against coagulation factor Xa (FXa)

T1 sequence (P00743 41-180): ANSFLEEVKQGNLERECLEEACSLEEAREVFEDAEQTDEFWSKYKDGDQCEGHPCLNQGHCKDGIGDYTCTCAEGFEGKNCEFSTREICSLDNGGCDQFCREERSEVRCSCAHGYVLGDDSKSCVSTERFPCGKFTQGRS
T1 sequence (P00743 234-492): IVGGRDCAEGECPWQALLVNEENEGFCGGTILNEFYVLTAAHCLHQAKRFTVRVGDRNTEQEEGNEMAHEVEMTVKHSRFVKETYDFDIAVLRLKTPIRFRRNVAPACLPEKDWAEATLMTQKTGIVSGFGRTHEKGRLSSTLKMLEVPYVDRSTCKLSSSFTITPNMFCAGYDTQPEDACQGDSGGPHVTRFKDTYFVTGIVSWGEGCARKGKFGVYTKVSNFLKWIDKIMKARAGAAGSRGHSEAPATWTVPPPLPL

Compound	In vitro anti-coagulation activity versus normal control [1]	IC50 [2, 7]	other results
20(R)-Rg3	insignificant anti-coagulation effects	–	–
CC(C)=CCC[C@](C)(O[C@@H]1O[C@H](CO)[C@@H](O)[C@H](O)[C@H]1O)[C@H]1CC[C@]2(C)[C@@H]1[C@H](O)C[C@@H]1[C@@]3(C)CC[C@H](O)C(C)(C)[C@@H]3[C@@H](O)C[C@]12C [F1, ginsenoside F1]	significant anti-coagulation activity	227 nM	–
CC(C)=CCC[C@](C)(O[C@@H]1O[C@H](CO)[C@@H](O)[C@H](O)[C@H]1O)[C@H]1CC[C@]2(C)[C@@H]1[C@H](O)C[C@@H]1[C@@]3(C)CC[C@H](O[C@@H]4O[C@H](CO)[C@@H](O)[C@H](O)[C@H]4O)C(C)(C)[C@@H]3CC[C@]12C [F2, ginsenoside F2]	significant anti-coagulation activity	425 nM	–
CC(C)=CCCC(C)(O)C1CCC2(C)C1C(O)CC1C3(C)CCC(O)C(C)(C)C3CCC12C (centres unmarked) [PPD, protopanaxdiol]	significant anti-coagulation activity	339 nM	–
CC(C)=CCCC(C)(O)C1CCC2(C)C1C(O)CC1C3(C)CCC(O)C(C)(C)C3C(O)CC12C (centres unmarked) [PPT, protopanaxtriol]	best bioactivity (p < 0.01)	141 nM	IC50 [3]: 82000 nM
CC(C)=CCC[C@](C)(O)[C@H]1CC[C@]2(C)[C@@H]1[C@H](O)C[C@@H]1[C@@]3(C)CC[C@H](O)C(C)(C)[C@@H]3[C@@H](O[C@@H]3O[C@H](CO)[C@@H](O)[C@H](O)[C@H]3O[C@@H]3O[C@H](CO)[C@@H](O)[C@H](O)[C@H]3O)C[C@]12C [Rf, ginsenoside Rf]	insignificant anti-coagulation effects	1030 nM	–
CC(C)=CCC[C@](C)(O[C@@H]1O[C@H](CO)[C@@H](O)[C@H](O)[C@H]1O)[C@H]1CC[C@]2(C)[C@@H]1[C@H](O)C[C@@H]1[C@@]3(C)CC[C@H](O)C(C)(C)[C@@H]3[C@@H](O[C@@H]3O[C@H](CO)[C@@H](O)[C@H](O)[C@H]3O)C[C@]12C [Rg1, ginsenoside Rg1]	significant anti-coagulation activity	335 nM	Anti-coagulant activities in vitro compared to heparin [4]: significantly better anti-coagulant activities
CC(C)=CCC[C@](C)(O)[C@H]1CC[C@]2(C)[C@@H]1[C@H](O)C[C@@H]1[C@@]3(C)CC[C@H](O)C(C)(C)[C@@H]3[C@@H](O[C@@H]3O[C@H](CO)[C@@H](O)[C@H](O)[C@H]3O[C@@H]3O[C@@H](C)[C@H](O)[C@@H](O)[C@H]3O)C[C@]12C [Rg2, ginsenoside Rg2]	best bioactivity (p < 0.01)	136 nM	Anti-coagulant activities in vitro compared to heparin [4]: significantly better anti-coagulant activities; IC50 [3]: 81300 nM
CC(C)=CCC[C@](C)(O)[C@H]1CC[C@]2(C)[C@@H]1[C@H](O)C[C@@H]1[C@@]3(C)CC[C@H](O)C(C)(C)[C@@H]3[C@@H](O[C@@H]3O[C@H](CO)[C@@H](O)[C@H](O)[C@H]3O)C[C@]12C [Rh1, ginsenoside Rh1]	significant anti-coagulation activity	–	IC50 [2]: 236 nM
CC(C)=CCC[C@](C)(O)[C@H]1CC[C@]2(C)[C@@H]1[C@H](O)C[C@@H]1[C@@]3(C)CC[C@H](O[C@@H]4O[C@H](CO)[C@@H](O)[C@H](O)[C@H]4O)C(C)(C)[C@@H]3CC[C@]12C [Rh2, ginsenoside Rh2]	significant anti-coagulation activity	–	IC50 [2]: 349 nM
CC1(C)[C@@H](O)CC[C@]2(C)[C@H]3C(=O)C=C4[C@@H]5C[C@@](C)(C(=O)O)CC[C@]5(C)CC[C@@]4(C)[C@]3(C)CC[C@@H]12 [glycyrrhetinic acid]	–	–	Inhibition of FXa activity in vitro [5]: significantly inhibit FXa activity in vitro with specificity; Thrombus weight [6]: reduce thrombus weight
ginsenoside Rg3	best bioactivity (p < 0.01)	–	–
